Columns and labels:
Assay type in all cases: in vivo
[1] = system: barnyardgrass (Echinochloa crus-galli); assay: Test A preemergence, barnyardgrass; settings: Preemergence; for Plant response rating, Barnyardgrass: 0 to 100 scale (0 no effect, 100 complete control); for Barnyardgrass plant response rating: visual injury on 0 to 100 scale (0 no effect, 100 complete control), approximately 10 days
From the text: (§1) Seeds of plant species selected from barnyardgrass (Echinochloa crus-galli), kochia (Bassia scoparia), ragweed (common ragweed, Ambrosia artemisiifolia), Ryegrass, Italian (Italian ryegrass, Lolium multiflorum), Foxtail, Giant (giant foxtail, Setaria faberi), and pigweed (Amaranthus retroflexus) were planted into a blend of loam soil and sand and treated preemergence with a directed soil spray using test chemicals formulated in a non-phytotoxic solvent mixture which included a surfactant. At the same time, plants selected from these weed species and also wheat (Triticum aestivum), corn (Zea mays), blackgrass (Alopecurus myosuroides), and galium (catchweed bedstraw, Galium aparine) were planted in pots containing the same blend of loam soil and sand and treated with postemergence applications of test chemicals formulated in the same manner. Plants ranged in height from 2 to 10 cm and were in the one- to two-leaf stage for the postemergence treatment. […] A dash (-) response means no test result.

kochia (Bassia scoparia) [2] = assay: Test A preemergence, kochia; settings: Preemergence; for Plant response rating, Kochia: 0 to 100 scale (0 no effect, 100 complete control); for Kochia plant response rating: visual injury on 0 to 100 scale (0 no effect, 100 complete control), approximately 10 days
From the text: as §1

[3] = system: ragweed (common ragweed, Ambrosia artemisiifolia); assay: Test A preemergence, ragweed; settings: Preemergence; for Plant response rating, Ragweed: 0 to 100 scale (0 no effect, 100 complete control); for Ragweed plant response rating: visual injury on 0 to 100 scale (0 no effect, 100 complete control), approximately 10 days
From the text: as §1

[4] = system: Ryegrass, Italian (Italian ryegrass, Lolium multiflorum); assay: Test A preemergence, Ryegrass, Italian; settings: Preemergence; for Plant response rating, Ryegrass, Italian: 0 to 100 scale (0 no effect, 100 complete control); for Ryegrass, Italian plant response rating: visual injury on 0 to 100 scale (0 no effect, 100 complete control), approximately 10 days
From the text: as §1

[5] = system: Foxtail, Giant (giant foxtail, Setaria faberi); assay: Test A preemergence, Foxtail, Giant; settings: Preemergence; for Plant response rating, Foxtail, Giant: 0 to 100 scale (0 no effect, 100 complete control); for Foxtail, Giant plant response rating: visual injury on 0 to 100 scale (0 no effect, 100 complete control), approximately 10 days
From the text: as §1

[6] = system: barnyardgrass (Echinochloa crus-galli); assay: Test A postemergence, barnyardgrass; settings: Postemergence, 0 to 100 scale (0 no effect, 100 complete control); for Barnyardgrass plant response rating: visual injury vs untreated controls after approx. 10 days
From the text: as §1

kochia (Bassia scoparia) [7] = assay: Test A postemergence, kochia; settings: Postemergence, 0 to 100 scale (0 no effect, 100 complete control); for Kochia plant response rating: visual injury vs untreated controls after approx. 10 days
From the text: as §1

[8] = system: ragweed (common ragweed, Ambrosia artemisiifolia); assay: Test A postemergence, ragweed; settings: Postemergence, 0 to 100 scale (0 no effect, 100 complete control); for Ragweed plant response rating: visual injury vs untreated controls after approx. 10 days
From the text: as §1

[9] = system: Ryegrass, Italian (Italian ryegrass, Lolium multiflorum); assay: Test A postemergence, Ryegrass, Italian; settings: Postemergence, 0 to 100 scale (0 no effect, 100 complete control); for Ryegrass, Italian plant response rating: visual injury vs untreated controls after approx. 10 days
From the text: as §1

[10] = system: Foxtail, Giant (giant foxtail, Setaria faberi); assay: Test A postemergence, Foxtail, Giant; settings: Postemergence, 0 to 100 scale (0 no effect, 100 complete control); for Foxtail, Giant plant response rating: visual injury vs untreated controls after approx. 10 days
From the text: as §1

[11] = system: pigweed (Amaranthus retroflexus); assay: Test A postemergence, pigweed; settings: Postemergence, 0 to 100 scale (0 no effect, 100 complete control); for Pigweed plant response rating: visual injury vs untreated controls after approx. 10 days
From the text: as §1

[12] = system: wheat (Triticum aestivum); assay: Test A postemergence, wheat; settings: Postemergence, 0 to 100 scale (0 no effect, 100 complete control); for Wheat plant response rating: visual injury vs untreated controls after approx. 10 days
From the text: as §1

corn (Zea mays) = assay: Test A postemergence, corn; settings: Postemergence, 0 to 100 scale (0 no effect, 100 complete control); for Corn plant response rating: visual injury vs untreated controls after approx. 10 days
From the text: as §1

[13] = system: blackgrass (Alopecurus myosuroides); assay: Test A postemergence, blackgrass; settings: Postemergence, 0 to 100 scale (0 no effect, 100 complete control); for Blackgrass plant response rating: visual injury vs untreated controls after approx. 10 days
From the text: as §1

[14] = system: galium (catchweed bedstraw, Galium aparine); assay: Test A postemergence, galium; settings: Postemergence, 0 to 100 scale (0 no effect, 100 complete control); for Galium plant response rating: visual injury vs untreated controls after approx. 10 days
From the text: as §1

[15] = 125 g ai/ha, visual injury, approx. 10 days
[16] = 500 g ai/ha, visual injury approx. 10 days
[17] = 125 g ai/ha, visual injury approx. 10 days

SMILES	Plant response rating, Barnyardgrass ([6]; 125 g ai/ha)	Plant response rating, Kochia (kochia (Bassia scoparia) [7]; 125 g ai/ha)	Plant response rating, Ragweed ([8]; 125 g ai/ha)	Plant response rating, Ryegrass, Italian ([9]; 125 g ai/ha)	Plant response rating, Foxtail, Giant ([10]; 125 g ai/ha)	Plant response rating, Pigweed ([11]; 125 g ai/ha)	Plant response rating, Wheat ([12]; 125 g ai/ha)	Plant response rating, Corn (corn (Zea mays); 125 g ai/ha)	Plant response rating, Blackgrass ([13]; 125 g ai/ha)	Plant response rating, Galium ([14]; 125 g ai/ha)	Barnyardgrass plant response rating ([1]; 125 g ai/ha)	Plant response rating, Barnyardgrass ([1]; 500 g ai/ha)	Kochia plant response rating (kochia (Bassia scoparia) [2]; 125 g ai/ha)	Plant response rating, Kochia (kochia (Bassia scoparia) [2]; 500 g ai/ha)	Ragweed plant response rating ([3]; 125 g ai/ha)	Plant response rating, Ragweed ([3]; 500 g ai/ha)	Ryegrass, Italian plant response rating ([4]; 125 g ai/ha)	Plant response rating, Ryegrass, Italian ([4]; 500 g ai/ha)	Foxtail, Giant plant response rating ([5]; 125 g ai/ha)	Plant response rating, Foxtail, Giant ([5]; 500 g ai/ha)	also measured
COC(=O)N(c1cc(N2CCC3(CCCCC3)C2=O)c(C)cc1C)S(=O)(=O)C(F)(F)F [Compound 266]	0	0	0	0	0	0	0	0	30	30											Plant response rating, Barnyardgrass [1, 15]: 0; Barnyardgrass plant response rating ([1]; 500 g ai/ha): 40; Plant response rating, Kochia (kochia (Bassia scoparia) [2]; [15]): 0; Kochia plant response rating (kochia (Bassia scoparia) [2]; 500 g ai/ha): 0; Plant response rating, Ragweed [3, 15]: 0; Ragweed plant response rating ([3]; 500 g ai/ha): 0; Plant response rating, Ryegrass, Italian [4, 15]: 0; Ryegrass, Italian plant response rating ([4]; 500 g ai/ha): 0; Plant response rating, Foxtail, Giant [5, 15]: 0; Foxtail, Giant plant response rating ([5]; 500 g ai/ha): 20; Plant response rating, Barnyardgrass [6, 16]: 20; Plant response rating, Kochia (kochia (Bassia scoparia) [7]; [16]): 10; Plant response rating, Ragweed [8, 16]: 10; Plant response rating, Ryegrass, Italian [9, 16]: 0; Plant response rating, Foxtail, Giant [10, 16]: 0; Plant response rating, Pigweed [11, 16]: 0; Plant response rating, Wheat [12, 16]: 0; Plant response rating, Corn (corn (Zea mays); [16]): 0; Plant response rating, Blackgrass [13, 16]: 0; Plant response rating, Galium [14, 16]: 90
Cc1cc(C)c(C2=NOC3(C2)CC(C)OC(C)C3)cc1NS(=O)(=O)C(F)(F)F (single isomer, unassigned) [Compound 171]	90	30	40	80	60	60	60	80	40	60	90	100	70	90	80	90	100	100	100	100	Barnyardgrass plant response rating ([6]; 500 g ai/ha): 90; Kochia plant response rating (kochia (Bassia scoparia) [7]; 500 g ai/ha): 70; Ragweed plant response rating ([8]; 500 g ai/ha): 90; Ryegrass, Italian plant response rating ([9]; 500 g ai/ha): 80; Foxtail, Giant plant response rating ([10]; 500 g ai/ha): 90; Pigweed plant response rating ([11]; 500 g ai/ha): 80; Wheat plant response rating ([12]; 500 g ai/ha): 60; Corn plant response rating (corn (Zea mays); 500 g ai/ha): 80; Blackgrass plant response rating ([13]; 500 g ai/ha): 80; Galium plant response rating ([14]; 500 g ai/ha): 90
Cc1cc(C)c(N(S(=O)(=O)C(F)(F)F)S(=O)(=O)C(F)(F)F)cc1C1=NOC2(CCSCC2)C1 [Compound 114]											50	80	30	70	0	10	70	90	90	100	Plant response rating, Barnyardgrass [6, 17]: 20; Barnyardgrass plant response rating ([6]; 500 g ai/ha): 70; Plant response rating, Kochia (kochia (Bassia scoparia) [7]; [17]): 10; Kochia plant response rating (kochia (Bassia scoparia) [7]; 500 g ai/ha): 40; Plant response rating, Ragweed [8, 17]: 0; Ragweed plant response rating ([8]; 500 g ai/ha): 30; Plant response rating, Ryegrass, Italian [9, 17]: 40; Ryegrass, Italian plant response rating ([9]; 500 g ai/ha): 40; Plant response rating, Foxtail, Giant [10, 17]: 50; Foxtail, Giant plant response rating ([10]; 500 g ai/ha): 80; Plant response rating, Pigweed [11, 17]: 60; Pigweed plant response rating ([11]; 500 g ai/ha): 80; Plant response rating, Wheat [12, 17]: 60; Wheat plant response rating ([12]; 500 g ai/ha): 60; Plant response rating, Corn (corn (Zea mays); [17]): 20; Corn plant response rating (corn (Zea mays); 500 g ai/ha): 50; Plant response rating, Blackgrass [13, 17]: 30; Blackgrass plant response rating ([13]; 500 g ai/ha): 50; Plant response rating, Galium [14, 17]: 90; Galium plant response rating ([14]; 500 g ai/ha): 90
COC1CCCN(C(=O)c2cc(NS(=O)(=O)C(F)(F)F)c(Cl)cc2C)C1 (stereo not drawn) [Compound 146]	40	40	60	30	20	50	50	10	0	90	90	100	80	80	60	70	90	100	100	100	Barnyardgrass plant response rating ([6]; 500 g ai/ha): 80; Kochia plant response rating (kochia (Bassia scoparia) [7]; 500 g ai/ha): 50; Ragweed plant response rating ([8]; 500 g ai/ha): 90; Ryegrass, Italian plant response rating ([9]; 500 g ai/ha): 70; Foxtail, Giant plant response rating ([10]; 500 g ai/ha): 90; Pigweed plant response rating ([11]; 500 g ai/ha): 80; Wheat plant response rating ([12]; 500 g ai/ha): 60; Corn plant response rating (corn (Zea mays); 500 g ai/ha): 20; Blackgrass plant response rating ([13]; 500 g ai/ha): 20; Galium plant response rating ([14]; 500 g ai/ha): 90

Source: patent US20230278972A1, “SUBSTITUTED HALOALKYL SULFONANILIDE HERBICIDES” (FMC Corporation, priority 2020, published 2023)
